Test results published in publication PMC6828666, “Discovery of holoenzyme-disrupting chemicals as substrate-selective CK2 inhibitors” (Scientific Reports, 2019).

How the values were obtained:
[1] = tested on: p21 phosphorylation at Thr145 in MCF10A cells; assay: Western blot of p21 Thr145 phosphorylation; format: cell-based, human; settings: 24 h
Experimental: Figure 5 Cellular effects of compounds 3, 4 and 6. MCF10A cells were incubated for 24 h with either DMSO or 30 μM TAT or 30 μM TAT-Pc or 25 μM 6 (a) or with increasing concentrations of 6 (b) or 3 (c). MCF10A cells were incubated for 48 h with either DMSO or with increasing concentrations of 3 or 6 (d). Cells were then lysed and analyzed by western blot with the indicated antibodies. Blot images are representative of at least three independent experiments. Uncropped blots are shown in Supplementary Fig. S16. (e) MDA-MB231 cells were treated with 40 μM 6 (⚬), 4 (▴) or 3 (X). (f) MDA-MB231 cells were treated for 30 h with increasing concentrations of 6 (⚬) or 4 (▴). Insert: cells were treated for 30 h with 80 μM 6 or 10 μM CX-4945. (g) Cells were incubated with 80 μM 6 or 4 in the absence or presence of 20 μM Z-VAD. […] (h) MDA-MB231 cells (⚬) or MCF10A cells (⦁) were incubated for 24 h with 80 μM 6. Cell death was automatically quantified from images captured every 3 h for the duration of the experiments using an Essen IncuCyte Zoom live-cell microscopy incubator. Error bars represent the SEM of two biological replicates derived from technical triplicates.
Cells were lysed in RIPA buffer (10 mM Tris-HCl pH 7.4, 150 mM NaCl, 1% Triton X-100, 0.1% SDS, 0.5% DOC and 1 mM EDTA) containing both protease- and phosphatase-inhibitor cocktails (Sigma-Aldrich; P8340, P2850, P5726). Cell homogenates were quantified using BCA protein Assay kit (Thermo Scientific). SDS-PAGE was performed using pre-cast 4–12% gradient gel (Bio-Rad) and submitted to electrophoresis in NuPAGE buffer (150 V for 75 min). Separated proteins at 20 μg/lane were transferred to PVDF membranes (100 V for 60 min). […] Luminata Forte Western HRP substrate (Millipore) was added and membranes were read with Fusion Fx7 (PerkinElmer). […] Images were analyzed and band intensities were quantified using ImageJ software. […]

[2] = biological target: CK2α (Homo sapiens, UniProt P68400); assay: SPR binding studies on captured GST-CK2α; settings: surface plasmon resonance
CK2α, sequence (P68400 whole entry): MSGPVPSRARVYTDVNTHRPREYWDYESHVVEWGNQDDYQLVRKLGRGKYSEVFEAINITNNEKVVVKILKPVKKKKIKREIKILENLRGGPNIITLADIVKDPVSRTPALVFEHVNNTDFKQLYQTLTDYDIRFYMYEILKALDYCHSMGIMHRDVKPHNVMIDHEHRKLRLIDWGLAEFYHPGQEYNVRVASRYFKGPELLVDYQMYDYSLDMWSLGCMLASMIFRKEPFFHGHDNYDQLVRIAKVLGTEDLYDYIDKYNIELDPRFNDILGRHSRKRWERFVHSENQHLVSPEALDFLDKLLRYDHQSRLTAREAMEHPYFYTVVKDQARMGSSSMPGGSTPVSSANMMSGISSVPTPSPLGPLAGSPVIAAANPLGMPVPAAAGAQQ
Experimental: SPR competition studies (Fig. 2i) were performed using a BIAcore 3000 instrument (BIAcore AB) equipped with a CM5 sensor chip (BIAcore AB). After activation with a solution of N-hydroxysuccinimide and N-ethyl-N-(dimethylaminopropyl)carbodiimide hydrochloride (coupling solution BIAcore AB), the anti-GST antibody diluted at 30 μg/ml in 10 mM acetate buffer pH 5.0 was injected at a flow rate of 5 μL/min for 7 min. All the surfaces were blocked with a 3 min injection at 10 μL/min of 1 M ethanolamine, pH 8.0. GST-CK2α (50 μg/ml) was immobilized on the surface at a flow rate of 5 μL/min in HBS (10 mM Hepes pH 7.3, 0.15 M NaCl, 3 mM EDTA, 0.005% polysorbate 20). MBP-CK2β diluted at 50 μg/ml in HBS buffer was injected over the surface at a flow rate of 5 μL/min in presence of various compound 1 concentration. Regeneration of the surfaces was achieved by injection of 10 mM glycine-HCl pH 2.2. SPR binding studies (Supplementary Fig. S7) were performed using a Reichert SR7000DC instrument optical biosensor (Reichert Technologies) equipped with a CMD500m sensor chip obtained from XanTec Bioanalytics. CK2α was immobilized by a capturing approach using a monoclonal anti-GST antibody (27 kDa, Clone GST-R 6G9 produced in rat, SAB4200055 Sigma Aldrich). Prior to use, the anti-GST antibodies were purified twice by micro dialysis at 4 °C (Membrane: dialysis tubing benzoylated, 9 mm, D2272-5FT) in 10 mM sodium acetate, pH = 5. Anti-GST antibodies were immobilized using amine-coupling chemistry at 12 °C. The surfaces of all two flow cells were activated for 7 min with a 1:1 mixture of 0.1 M NHS (N-hydroxysuccinimide) and 0.1 M EDC (3-(N,N-dimethylamino) propyl-N-ethylcarbodiimide) at a flow rate of 10 μL/min. The antibody at a concentration of 30 μg/mL in 10 mM sodium acetate, pH 5.0, was immobilized at a density of 2000 RU on flow cell 2; flow cell 1 was left blank to serve as a reference surface. All the surfaces were blocked with a 3 min injection at 10 μL/min of 1 M ethanolamine, pH 8.0. GST tagged CK2α at a concentration of 50 μg/mL in 10 mM HEPES, 150 mM NaCl, 3 mM EDTA, 0.005% (v/v) polysorbate 20, pH = 7.4 was captured at a density of 900 RU on flow cell 2. In order to collect kinetic binding data, analytes in 10 mM HEPES, 150 mM NaCl, 3 mM EDTA, 0.005% (v/v) polysorbate 20, 1% DMSO (v/v), 100 μM ATP, pH = 7.4 were injected over the two flow cells at concentrations of 50, 25, 12.5, 6.25, 3.12, 1.56 μM at a flow rate of 25 μL/min and at a temperature of 25 °C. The complex was allowed to associate and dissociate for 120 s. Duplicate injections (in random order) of each sample and a buffer blank were flowed over the two surfaces. Affinities were obtained after treatments (DMSO calibration, blank and references subtractions) using the software Scrubber 2.0c.
Fig. S7. Binding kinetics of compounds 2-6 by surface plasmon resonance. For each compound, sensorgrams (black line) and global fits (orange line) are depicted with the corresponding chemical structure and the fitted kinetics parameters. Experiments show representative data of two identical repeats.

Compound: CS(=O)(=O)NCCN1CCC(COC(=O)c2c[nH]c3ccccc23)CC1 [Compound 3, (1-(2-(Methylsulfonamido)ethyl)piperidin-4-yl)methyl 1H-indole-3-carboxylate]
- p21 phosphorylation ([1]; 100 μM): moderate increase
- Kd [2]: 54 ± 5 µM

Compound: O=C(OCC1CCN(CCNS(=O)(=O)c2ccccc2)CC1)c1c[nH]c2ccccc12 [Compound 4, (1-(2-(Phenylsulfonamido)ethyl)piperidin-4-yl)methyl 1H-indole-3-carboxylate]
- Kd [2]: 41 ± 5 µM

Compound: COc1[nH]c2ccc(F)cc2c1C(=O)OCC1CCN(CCNS(=O)(=O)c2ccccc2)CC1.Cl [Compound 6]
- concentration at which p21 Thr145 phosphorylation reaches the maximum [1]: 20 µM
- p21 Thr145 phosphorylation ([1]; increasing concentrations): striking dose-dependent increase
